This note sets out measurements from US20140315876A1, “BETA-LACTAMASE INHIBITORS” (priority 2013, published 2014).

The subject of assay [1] is bacterial strains that express KPC β-lactamases. The assay is described as follows: Synergy MIC / standard BLI potentiation MIC assay, strains expressing KPC β-lactamases. The note with it: more active for at least one KPC strain and/or better spectrum of activity than Avibactam; in the presence of a β-lactam. Format: cell-based. The gist of the method:
(§1)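 Broth microdilution in CAMHB per CLSI, ~10^5 CFU/mL, 18-20 h at 37° C; MIC is lowest concentration with no visible turbidity. Potentiation: β-lactam 128-0.13 μg/mL with BLI fixed at 4 μg/mL. Synergy: BLI serially diluted with β-lactam fixed. Engineered E. coli kept on 25 μg/mL tetracycline.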

Assay [2] relates to bacterial strains that express the class D cephalosporinase OXA-15. The assay is described as follows: Synergy MIC / standard BLI potentiation MIC assay, strains expressing OXA-15. In kind it is cell-based, E. coli. The note with it: in the presence of a β-lactam; comparator Avibactam (comparator compound CCC). The gist of the method:
as §1

Where a name gives a salt, the structure may show the parent alone.

On to `N[C@H]1CN[C@@H](c2nnc([C@@H]3CC[C@@H]4CN3C(=O)N4OS(=O)(=O)O)o2)C1` [Compound 761, (2S,5R)-2-(5-((2R,4R)-4-aminopyrrolidin-2-yl)-1,3,4-oxadiazol-2-yl)-7-oxo-1,6-diazabicyclo[3.2.1]octan-6-yl hydrogen sulfate], for which, in assay [1], the “activity and/or spectrum of activity against bacterial strains that express KPC β-lactamases, compared with Avibactam” value is “more active than Avibactam”. Besides, the “activity against bacterial strains that express the class D cephalosporinase OXA-15, compared with Avibactam” value in assay [2] was “more active than Avibactam”.

With `N[C@H]1CN[C@H](c2nnc([C@@H]3CC[C@@H]4CN3C(=O)N4OS(=O)(=O)O)o2)C1` [Compound 762, (2S,5R)-2-(5-((2S,4R)-4-aminopyrrolidin-2-yl)-1,3,4-oxadiazol-2-yl)-7-oxo-1,6-diazabicyclo[3.2.1]octan-6-yl hydrogen sulfate], in assay [1], the “activity and/or spectrum of activity against bacterial strains that express KPC β-lactamases, compared with Avibactam” value is “more active than Avibactam”. Also, the “activity against bacterial strains that express the class D cephalosporinase OXA-15, compared with Avibactam” value in assay [2] is given as “more active than Avibactam”.

For `N[C@@H]1CN[C@@H](c2nnc([C@@H]3CC[C@@H]4CN3C(=O)N4OS(=O)(=O)O)o2)C1` [Compound 763, (2S,5R)-2-(5-((2R,4S)-4-aminopyrrolidin-2-yl)-1,3,4-oxadiazol-2-yl)-7-oxo-1,6-diazabicyclo[3.2.1]octan-6-yl hydrogen sulfate], the “activity and/or spectrum of activity against bacterial strains that express KPC β-lactamases, compared with Avibactam” value in assay [1] is recorded as “more active than Avibactam”. Moreover, the “activity against bacterial strains that express the class D cephalosporinase OXA-15, compared with Avibactam” value in assay [2] is listed as “more active than Avibactam”.

Regarding `O=C1N2C[C@@H](CC[C@H]2c2nnc(CC3CCNC3)o2)N1OS(=O)(=O)O` (stereo partly drawn) [Compound 764, (2S,5R)-7-oxo-2-(5-(pyrrolidin-3-ylmethyl)-1,3,4-oxadiazol-2-yl)-1,6-diazabicyclo[3.2.1]octan-6-yl hydrogen sulfate], in assay [1], the “activity and/or spectrum of activity against bacterial strains that express KPC β-lactamases, compared with Avibactam” value is on record as “more active than Avibactam”. The “activity against bacterial strains that express the class D cephalosporinase OXA-15, compared with Avibactam” value in assay [2] is “more active than Avibactam”.

Turning to `O=C1N2C[C@@H](CC[C@H]2c2nnc(CN[C@H]3CCNC3)o2)N1OS(=O)(=O)O` [Compound 765, (2S,5R)-7-oxo-2-(5-(((S)-pyrrolidin-3-ylamino)methyl)-1,3,4-oxadiazol-2-yl)-1,6-diazabicyclo[3.2.1]octan-6-yl hydrogen sulfate], in assay [1], the “activity and/or spectrum of activity against bacterial strains that express KPC β-lactamases, compared with Avibactam” value is given as “more active than Avibactam”. Moreover, in assay [2], the “activity against bacterial strains that express the class D cephalosporinase OXA-15, compared with Avibactam” value is reported as “more active than Avibactam”.

As to `O=C1N2C[C@@H](CC[C@H]2c2nnc(CN[C@@H]3CCNC3)o2)N1OS(=O)(=O)O` [Compound 766, (2S,5R)-7-oxo-2-(5-(((R)-pyrrolidin-3-ylamino)methyl)-1,3,4-oxadiazol-2-yl)-1,6-diazabicyclo[3.2.1]octan-6-yl hydrogen sulfate], in assay [1], the “activity and/or spectrum of activity against bacterial strains that express KPC β-lactamases, compared with Avibactam” value was “more active than Avibactam”. Besides, the “activity against bacterial strains that express the class D cephalosporinase OXA-15, compared with Avibactam” value in assay [2] is “more active than Avibactam”.

Regarding `N=C1NCC(c2nnc([C@@H]3CC[C@@H]4CN3C(=O)N4OS(=O)(=O)O)o2)N1` (stereo partly drawn) [Compound 767, (2S,5R)-2-(5-(2-iminoimidazolidin-4-yl)-1,3,4-oxadiazol-2-yl)-7-oxo-1,6-diazabicyclo[3.2.1]octan-6-yl hydrogen sulfate], the “activity and/or spectrum of activity against bacterial strains that express KPC β-lactamases, compared with Avibactam” value in assay [1] was “more active than Avibactam”. In assay [2], the “activity against bacterial strains that express the class D cephalosporinase OXA-15, compared with Avibactam” value is on record as “more active than Avibactam”.

For the molecule `N[C@H]1CC[C@@H](c2nnc([C@@H]3CC[C@@H]4CN3C(=O)N4OS(=O)(=O)O)o2)C1` [Compound 768, (2S,5R)-2-(5-((1R,3S)-3-aminocyclopentyl)-1,3,4-oxadiazol-2-yl)-7-oxo-1,6-diazabicyclo[3.2.1]octan-6-yl hydrogen sulfate], the “activity and/or spectrum of activity against bacterial strains that express KPC β-lactamases, compared with Avibactam” value in assay [1] was “more active than Avibactam”. Also, the “activity against bacterial strains that express the class D cephalosporinase OXA-15, compared with Avibactam” value in assay [2] is “more active than Avibactam”.

Consider `O=C1N2C[C@@H](CC[C@H]2c2nnc(CCNC3CCNCC3)o2)N1OS(=O)(=O)O` [Compound 770, (2S,5R)-7-oxo-2-(5-(2-(piperidin-4-ylamino)ethyl)-1,3,4-oxadiazol-2-yl)-1,6-diazabicyclo[3.2.1]octan-6-yl hydrogen sulfate], for which the “activity and/or spectrum of activity against bacterial strains that express KPC β-lactamases, compared with Avibactam” value in assay [1] is on record as “more active than Avibactam”. In addition, the “activity against bacterial strains that express the class D cephalosporinase OXA-15, compared with Avibactam” value in assay [2] is on record as “more active than Avibactam”.

On to `O=C1N2C[C@@H](CC[C@H]2c2nnc(CCCNC3CCNCC3)o2)N1OS(=O)(=O)O` [Compound 771, (2S,5R)-7-oxo-2-(5-(3-(piperidin-4-ylamino)propyl)-1,3,4-oxadiazol-2-yl)-1,6-diazabicyclo[3.2.1]octan-6-yl hydrogen sulfate], for which the “activity and/or spectrum of activity against bacterial strains that express KPC β-lactamases, compared with Avibactam” value in assay [1] was “more active than Avibactam”. Besides, in assay [2], the “activity against bacterial strains that express the class D cephalosporinase OXA-15, compared with Avibactam” value was “more active than Avibactam”.

In the case of `O=C1N2C[C@@H](CC[C@H]2c2nnc(CCCCNC3CCNCC3)o2)N1OS(=O)(=O)O` [Compound 772, (2S,5R)-7-oxo-2-(5-(4-(piperidin-4-ylamino)butyl)-1,3,4-oxadiazol-2-yl)-1,6-diazabicyclo[3.2.1]octan-6-yl hydrogen sulfate], the “activity and/or spectrum of activity against bacterial strains that express KPC β-lactamases, compared with Avibactam” value in assay [1] is listed as “more active than Avibactam”. Besides, the “activity against bacterial strains that express the class D cephalosporinase OXA-15, compared with Avibactam” value in assay [2] is listed as “more active than Avibactam”.

Take `NC1CCN(Cc2nnc([C@@H]3CC[C@@H]4CN3C(=O)N4OS(=O)(=O)O)o2)CC1` [Compound 774, (2S,5R)-2-(5-((4-aminopiperidin-1-yl)methyl)-1,3,4-oxadiazol-2-yl)-7-oxo-1,6-diazabicyclo[3.2.1]octan-6-yl hydrogen sulfate]: the “activity and/or spectrum of activity against bacterial strains that express KPC β-lactamases, compared with Avibactam” value in assay [1] was “more active than Avibactam”. In assay [2], the “activity against bacterial strains that express the class D cephalosporinase OXA-15, compared with Avibactam” value is reported as “more active than Avibactam”.

On to `O=C1N2C[C@@H](CC[C@H]2c2nnc(CCN3CCNCC3)o2)N1OS(=O)(=O)O` [Compound 776, (2S,5R)-7-oxo-2-(5-(2-(piperazin-1-yl)ethyl)-1,3,4-oxadiazol-2-yl)-1,6-diazabicyclo[3.2.1]octan-6-yl hydrogen sulfate], for which the “activity and/or spectrum of activity against bacterial strains that express KPC β-lactamases, compared with Avibactam” value in assay [1] is listed as “more active than Avibactam”. Also, in assay [2], the “activity against bacterial strains that express the class D cephalosporinase OXA-15, compared with Avibactam” value is “more active than Avibactam”.

Regarding `O=C1N2C[C@@H](CC[C@H]2c2nnc(CN3CCNCC3)o2)N1OS(=O)(=O)O` [Compound 777, (2S,5R)-7-oxo-2-(5-(piperazin-1-ylmethyl)-1,3,4-oxadiazol-2-yl)-1,6-diazabicyclo[3.2.1]octan-6-yl hydrogen sulfate], the “activity and/or spectrum of activity against bacterial strains that express KPC β-lactamases, compared with Avibactam” value in assay [1] was “more active than Avibactam”. Moreover, the “activity against bacterial strains that express the class D cephalosporinase OXA-15, compared with Avibactam” value in assay [2] was “more active than Avibactam”.

On to `O=C1N2C[C@@H](CC[C@H]2c2nnc([C@H]3CNCCN3)o2)N1OS(=O)(=O)O` [Compound 779, (2S,5R)-7-oxo-2-(5-((R)-piperazin-2-yl)-1,3,4-oxadiazol-2-yl)-1,6-diazabicyclo[3.2.1]octan-6-yl hydrogen sulfate], for which, in assay [1], the “activity and/or spectrum of activity against bacterial strains that express KPC β-lactamases, compared with Avibactam” value is “more active than Avibactam”. Also, the “activity against bacterial strains that express the class D cephalosporinase OXA-15, compared with Avibactam” value in assay [2] is recorded as “more active than Avibactam”.

With `C[n+]1ccc(-c2nnc([C@@H]3CC[C@@H]4CN3C(=O)N4OS(=O)(=O)[O-])o2)cc1` [Compound 782, (2S,5R)-2-(5-(1-methylpyridin-1-ium-4-yl)-1,3,4-oxadiazol-2-yl)-7-oxo-1,6-diazabicyclo[3.2.1]octan-6-yl sulfate], in assay [1], the “activity and/or spectrum of activity against bacterial strains that express KPC β-lactamases, compared with Avibactam” value is recorded as “more active than Avibactam”. The “activity against bacterial strains that express the class D cephalosporinase OXA-15, compared with Avibactam” value in assay [2] is “more active than Avibactam”.

`N[C@H]1C[C@H](c2nnc([C@@H]3CC[C@@H]4CN3C(=O)N4OS(=O)(=O)O)s2)C1` [Compound 783, (2S,5R)-2-(5-((1r,3S)-3-aminocyclobutyl)-1,3,4-thiadiazol-2-yl)-7-oxo-1,6-diazabicyclo[3.2.1]octan-6-yl hydrogen sulfate]: the “activity and/or spectrum of activity against bacterial strains that express KPC β-lactamases, compared with Avibactam” value in assay [1] is recorded as “more active than Avibactam”. In addition, the “activity against bacterial strains that express the class D cephalosporinase OXA-15, compared with Avibactam” value in assay [2] is listed as “more active than Avibactam”.

For `N=C(N)N[C@H]1C[C@@H](c2nnc([C@@H]3CC[C@@H]4CN3C(=O)N4OS(=O)(=O)O)s2)C1` [Compound 784, (2S,5R)-2-(5-((1s,3R)-3-guanidinocyclobutyl)-1,3,4-thiadiazol-2-yl)-7-oxo-1,6-diazabicyclo[3.2.1]octan-6-yl hydrogen sulfate], the “activity and/or spectrum of activity against bacterial strains that express KPC β-lactamases, compared with Avibactam” value in assay [1] is reported as “more active than Avibactam”. In addition, the “activity against bacterial strains that express the class D cephalosporinase OXA-15, compared with Avibactam” value in assay [2] was “more active than Avibactam”.

Consider `N=C(N)NCCc1nnc([C@@H]2CC[C@@H]3CN2C(=O)N3OS(=O)(=O)O)s1` [Compound 794, (2S,5R)-2-(5-(2-guanidinoethyl)-1,3,4-thiadiazol-2-yl)-7-oxo-1,6-diazabicyclo[3.2.1]octan-6-yl hydrogen sulfate], for which, in assay [1], the “activity and/or spectrum of activity against bacterial strains that express KPC β-lactamases, compared with Avibactam” value is given as “more active than Avibactam”. Also, in assay [2], the “activity against bacterial strains that express the class D cephalosporinase OXA-15, compared with Avibactam” value is recorded as “more active than Avibactam”.
